{
  "source": "patent US8802597B2",
  "about": "“Herbicidal pyrimidines” (E I du Pont de Nemours and Company, priority 2003, dated 2014)",
  "assay_in_all_cases": "Test G pre/postemergence",
  "format_in_all_cases": "in vivo",
  "key": {"[1]": {"system": "quackgrass (Elytrigia repens)", "summary_of_the_method": "(§1)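 Pre- and postemergence greenhouse test; compound in non-phytotoxic solvent/surfactant mix. Post timing: 2–18 cm plants, 1- to 4-leaf. Visual rating vs controls at 12–21 d, 0 (no effect) to 100 (complete control).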"}, "[2]": {"system": "common ragweed (Ambrosia elatior)", "summary_of_the_method": "as §1"}, "[3]": {"system": "common chickweed (Stellaria media)", "summary_of_the_method": "as §1"}, "[4]": {"system": "guineagrass (Panicum maximum)", "summary_of_the_method": "as §1"}, "[5]": {"system": "bermudagrass (Cynodon dactylon)", "summary_of_the_method": "as §1"}, "[6]": {"system": "goosegrass (Eleusine indica)", "summary_of_the_method": "as §1"}, "[7]": {"system": "field bindweed (Convolvulus arvensis)", "summary_of_the_method": "as §1"}, "[8]": {"system": "downy bromegrass (Bromus tectorum)", "summary_of_the_method": "as §1"}, "[9]": {"system": "dallisgrass (Paspalum dilatatum)", "summary_of_the_method": "as §1"}, "[10]": {"system": "Surinam grass (Brachiaria decumbens)", "summary_of_the_method": "as §1"}, "[11]": {"conditions": "Postemergence, 250 g ai/ha, scale 0 to 100"}, "[12]": {"conditions": "Postemergence, 16 g ai/ha, scale 0 to 100"}, "[13]": {"conditions": "Postemergence, 31 g ai/ha, scale 0 to 100"}, "[14]": {"conditions": "Postemergence, 62 g ai/ha, scale 0 to 100"}, "[15]": {"conditions": "Postemergence, 125 g ai/ha, scale 0 to 100"}, "[16]": {"conditions": "Preemergence, 16 g ai/ha, scale 0-100"}, "[17]": {"conditions": "Preemergence, 31 g ai/ha, scale 0-100"}, "[18]": {"conditions": "Preemergence, 62 g ai/ha, scale 0-100"}, "[19]": {"conditions": "Preemergence, 125 g ai/ha, scale 0-100"}, "[20]": {"conditions": "Preemergence, 250 g ai/ha, scale 0-100"}},
  "data": [
    {"compound": "Nc1nc(C2CC2)nc(C(=O)[O-])c1Cl.[Na+]", "note": "[Compound 77, 6-amino-5-chloro-2-cyclopropyl-4-pyrimidinecarboxylic acid monosodium salt]", "values": [
      {"measurement": "Plant response rating, Quackgrass", "setting": "[1]; [11]", "value": 60},
      {"measurement": "Plant response rating, Quackgrass", "setting": "[1]; [12]", "value": 0},
      {"measurement": "Plant response rating, Quackgrass", "setting": "[1]; [13]", "value": 10},
      {"measurement": "Plant response rating, Quackgrass", "setting": "[1]; [14]", "value": 40},
      {"measurement": "Plant response rating, Quackgrass", "setting": "[1]; [15]", "value": 60},
      {"measurement": "Plant response rating, Quackgrass", "setting": "[1]; [16]", "value": 0},
      {"measurement": "Plant response rating, Quackgrass", "setting": "[1]; [17]", "value": 0},
      {"measurement": "Plant response rating, Quackgrass", "setting": "[1]; [18]", "value": 10},
      {"measurement": "Plant response rating, Quackgrass", "setting": "[1]; [19]", "value": 50},
      {"measurement": "Plant response rating, Quackgrass", "setting": "[1]; [20]", "value": 80},
      {"measurement": "Plant response rating, Ragweed", "setting": "[2]; [11]", "value": 100},
      {"measurement": "Plant response rating, Ragweed", "setting": "[2]; [12]", "value": 75},
      {"measurement": "Plant response rating, Ragweed", "setting": "[2]; [13]", "value": 75},
      {"measurement": "Plant response rating, Ragweed", "setting": "[2]; [14]", "value": 95},
      {"measurement": "Plant response rating, Ragweed", "setting": "[2]; [15]", "value": 98},
      {"measurement": "Plant response rating, Ragweed", "setting": "[2]; [16]", "value": 80},
      {"measurement": "Plant response rating, Ragweed", "setting": "[2]; [17]", "value": 95},
      {"measurement": "Plant response rating, Ragweed", "setting": "[2]; [18]", "value": 100},
      {"measurement": "Plant response rating, Ragweed", "setting": "[2]; [19]", "value": 100},
      {"measurement": "Plant response rating, Ragweed", "setting": "[2]; [20]", "value": 100},
      {"measurement": "Plant response rating, Chickweed", "setting": "[3]; [11]", "value": 100},
      {"measurement": "Plant response rating, Chickweed", "setting": "[3]; [12]", "value": 10},
      {"measurement": "Plant response rating, Chickweed", "setting": "[3]; [13]", "value": 80},
      {"measurement": "Plant response rating, Chickweed", "setting": "[3]; [14]", "value": 90},
      {"measurement": "Plant response rating, Chickweed", "setting": "[3]; [15]", "value": 90},
      {"measurement": "Plant response rating, Chickweed", "setting": "[3]; [17]", "value": 70},
      {"measurement": "Plant response rating, Chickweed", "setting": "[3]; [18]", "value": 90},
      {"measurement": "Plant response rating, Chickweed", "setting": "[3]; [19]", "value": 100},
      {"measurement": "Plant response rating, Chickweed", "setting": "[3]; [20]", "value": 100},
      {"measurement": "Plant response rating, Guineagrass", "setting": "[4]; [11]", "value": 75},
      {"measurement": "Plant response rating, Guineagrass", "setting": "[4]; [12]", "value": 0},
      {"measurement": "Plant response rating, Guineagrass", "setting": "[4]; [13]", "value": 0},
      {"measurement": "Plant response rating, Guineagrass", "setting": "[4]; [14]", "value": 65},
      {"measurement": "Plant response rating, Guineagrass", "setting": "[4]; [15]", "value": 65},
      {"measurement": "Plant response rating, Guineagrass", "setting": "[4]; [16]", "value": 30},
      {"measurement": "Plant response rating, Guineagrass", "setting": "[4]; [17]", "value": 70},
      {"measurement": "Plant response rating, Guineagrass", "setting": "[4]; [18]", "value": 85},
      {"measurement": "Plant response rating, Guineagrass", "setting": "[4]; [19]", "value": 85},
      {"measurement": "Plant response rating, Guineagrass", "setting": "[4]; [20]", "value": 95},
      {"measurement": "Plant response rating, Bermudagrass", "setting": "[5]; [11]", "value": 50},
      {"measurement": "Plant response rating, Bermudagrass", "setting": "[5]; [12]", "value": 10},
      {"measurement": "Plant response rating, Bermudagrass", "setting": "[5]; [13]", "value": 20},
      {"measurement": "Plant response rating, Bermudagrass", "setting": "[5]; [14]", "value": 35},
      {"measurement": "Plant response rating, Bermudagrass", "setting": "[5]; [15]", "value": 35},
      {"measurement": "Plant response rating, Bermudagrass", "setting": "[5]; [16]", "value": 0},
      {"measurement": "Plant response rating, Bermudagrass", "setting": "[5]; [17]", "value": 0},
      {"measurement": "Plant response rating, Bermudagrass", "setting": "[5]; [18]", "value": 0},
      {"measurement": "Plant response rating, Bermudagrass", "setting": "[5]; [19]", "value": 10},
      {"measurement": "Plant response rating, Bermudagrass", "setting": "[5]; [20]", "value": 60},
      {"measurement": "Plant response rating, Goosegrass", "setting": "[6]; [11]", "value": 65},
      {"measurement": "Plant response rating, Goosegrass", "setting": "[6]; [12]", "value": 0},
      {"measurement": "Plant response rating, Goosegrass", "setting": "[6]; [13]", "value": 15},
      {"measurement": "Plant response rating, Goosegrass", "setting": "[6]; [14]", "value": 50},
      {"measurement": "Plant response rating, Goosegrass", "setting": "[6]; [15]", "value": 50},
      {"measurement": "Plant response rating, Goosegrass", "setting": "[6]; [16]", "value": 0},
      {"measurement": "Plant response rating, Goosegrass", "setting": "[6]; [17]", "value": 5},
      {"measurement": "Plant response rating, Goosegrass", "setting": "[6]; [18]", "value": 5},
      {"measurement": "Plant response rating, Goosegrass", "setting": "[6]; [19]", "value": 25},
      {"measurement": "Plant response rating, Goosegrass", "setting": "[6]; [20]", "value": 55},
      {"measurement": "Plant response rating, Bindweed, Field", "setting": "[7]; [11]", "value": 100},
      {"measurement": "Plant response rating, Bindweed, Field", "setting": "[7]; [12]", "value": 70},
      {"measurement": "Plant response rating, Bindweed, Field", "setting": "[7]; [13]", "value": 98},
      {"measurement": "Plant response rating, Bindweed, Field", "setting": "[7]; [14]", "value": 98},
      {"measurement": "Plant response rating, Bindweed, Field", "setting": "[7]; [15]", "value": 100},
      {"measurement": "Plant response rating, Bindweed, Field", "setting": "[7]; [16]", "value": 80},
      {"measurement": "Plant response rating, Bindweed, Field", "setting": "[7]; [17]", "value": 90},
      {"measurement": "Plant response rating, Bindweed, Field", "setting": "[7]; [18]", "value": 95},
      {"measurement": "Plant response rating, Bindweed, Field", "setting": "[7]; [19]", "value": 100},
      {"measurement": "Plant response rating, Bindweed, Field", "setting": "[7]; [20]", "value": 100},
      {"measurement": "Plant response rating, Bromegrass, Downy", "setting": "[8]; [11]", "value": 75},
      {"measurement": "Plant response rating, Bromegrass, Downy", "setting": "[8]; [12]", "value": 0},
      {"measurement": "Plant response rating, Bromegrass, Downy", "setting": "[8]; [13]", "value": 20},
      {"measurement": "Plant response rating, Bromegrass, Downy", "setting": "[8]; [14]", "value": 35},
      {"measurement": "Plant response rating, Bromegrass, Downy", "setting": "[8]; [15]", "value": 65},
      {"measurement": "Plant response rating, Bromegrass, Downy", "setting": "[8]; [16]", "value": 0},
      {"measurement": "Plant response rating, Bromegrass, Downy", "setting": "[8]; [17]", "value": 0},
      {"measurement": "Plant response rating, Bromegrass, Downy", "setting": "[8]; [18]", "value": 0},
      {"measurement": "Plant response rating, Bromegrass, Downy", "setting": "[8]; [19]", "value": 10},
      {"measurement": "Plant response rating, Bromegrass, Downy", "setting": "[8]; [20]", "value": 75},
      {"measurement": "Plant response rating, Dallisgrass", "setting": "[9]; [11]", "value": 50},
      {"measurement": "Plant response rating, Dallisgrass", "setting": "[9]; [12]", "value": 0},
      {"measurement": "Plant response rating, Dallisgrass", "setting": "[9]; [13]", "value": 0},
      {"measurement": "Plant response rating, Dallisgrass", "setting": "[9]; [14]", "value": 15},
      {"measurement": "Plant response rating, Dallisgrass", "setting": "[9]; [15]", "value": 35},
      {"measurement": "Plant response rating, Dallisgrass", "setting": "[9]; [16]", "value": 0},
      {"measurement": "Plant response rating, Dallisgrass", "setting": "[9]; [17]", "value": 5},
      {"measurement": "Plant response rating, Dallisgrass", "setting": "[9]; [18]", "value": 15},
      {"measurement": "Plant response rating, Dallisgrass", "setting": "[9]; [19]", "value": 30},
      {"measurement": "Plant response rating, Dallisgrass", "setting": "[9]; [20]", "value": 85},
      {"measurement": "Plant response rating, Surinam Grass", "setting": "[10]; [11]", "value": 70},
      {"measurement": "Plant response rating, Surinam Grass", "setting": "[10]; [12]", "value": 0},
      {"measurement": "Plant response rating, Surinam Grass", "setting": "[10]; [13]", "value": 10},
      {"measurement": "Plant response rating, Surinam Grass", "setting": "[10]; [14]", "value": 25},
      {"measurement": "Plant response rating, Surinam Grass", "setting": "[10]; [15]", "value": 65},
      {"measurement": "Plant response rating, Surinam Grass", "setting": "[10]; [16]", "value": 0},
      {"measurement": "Plant response rating, Surinam Grass", "setting": "[10]; [17]", "value": 5},
      {"measurement": "Plant response rating, Surinam Grass", "setting": "[10]; [18]", "value": 70},
      {"measurement": "Plant response rating, Surinam Grass", "setting": "[10]; [19]", "value": 90},
      {"measurement": "Plant response rating, Surinam Grass", "setting": "[10]; [20]", "value": 100}
    ]}
  ]
}
